Data as given in US6521654B2, “Substituted imidazolidine derivatives, their preparation, their use and pharmaceutical preparations including them” (Aventis Pharma Deutschland GmbH, priority 1997, dated 2003).

Molecular target: T1, interaction between VCAM-1 and VLA-4 (Homo sapiens, UniProt P05556+P13612)
T1 construct: supplied in their natural form as surface molecules on human U937 cells; host or cells: U937 cells carry endogenous VLA-4; The partner hVCAM-1(1-3)-IgG was made in house in transfected COS cells (ATCC CRL1651) and used as culture supernatant
Assay: U937/VCAM-1 cell adhesion test (adhesion of U937 cells to hVCAM-1(1-3)-IgG)
Assay type: cell-based
Conditions: concentration leading to 50% inhibition of adhesion of human U937 cells (ATCC CRL 1593) to hVCAM-1(1-3)-IgG
Excerpt: The test method used for the activity of the compounds of the formula I on the interaction between VCAM-1 and VLA-4 is the assay described below which is specific for this interaction. The cellular binding components, i.e., the VLA-4 integrins, are supplied in their natural form as surface molecules on human U937 cells (ATCC CRL 1593). which belong to the leucocytes group. The specific binding components used are genetically engineered recombinant soluble fusion proteins, consisting of the extracytoplasmatic domain of human VCAM-1 and the constant region of a human immunoglobulin of the subclass IgG1.
Assay for the Measurement of the Adhesion of U937 Cells (ATCC CRL 1593) to hVCAM-1(1-3)-IgG
1. Preparation of Human VCAM-1 (1-3)-IgG and Human CD4-IgG
A genetic construct for the expression of the extracellular domain of human VCAM-1, associated with the genetic sequence of the heavy chain of human immunoglobulin IgG1 (hinge, CH2 and CH3 regions), from Dr. Brian Seed, Massachusetts General Hospital. Boston, USA was employed (cf. Damle and Aruffo, Proc. Natl. Acad. Sci. USA 1991, 88, 6403-6407). The soluble fusion protein hVCAM-1(1-3)-IgG contained the three amino-terminal extracellular immunoglobulin-like domains of human VCAM-1 (Damle and Aruffo, Proc. Natl. Acad. Sci. USA 1991, 88, 6403-6407). CD4-IgG (Zettimeissl et al., DNA and Cell Biology 1990, 9, 347) served as a fusion protein for negative controls. The recombinant proteins were expressed as soluble proteins after DEAE/dextran-mediated DNA transfection in COS cells (ATCC CRL1651) according to standard procedures (Ausubel et al., Current Protocols in Molecular Biology, John Wiley & Sons, Inc., 1994).
2. Assay for the Measurement of the Adhesion of U937 Cells to hVCAM-1 (1-3)-IgG
2.1 96-well microtiter test plates (Nunc Maxisorb) were incubated at room temperature for 1 hour with 100 μl/well of a goat-anti-human IgG antibody solution (10 μg/ml in 50 mM tris, pH 9.5). After removal of the antibody solution, washing was carried out once with PBS.
2.2 150 μl/well of a blocking buffer (1% BSA in PBS) were incubated on the plates at room temperature for 0.5 hour. After removal of the blocking buffer, washing was carried out once with PBS.
2.3 100 μl per well of a cell culture supernatant of transfected COS cells were incubated on the plates at room temperature for 1.5 hours. The COS cells were transfected with a plasmid which codes for the three N-terminal immunoglobulin-like domains of VCAM-1, coupled to the Fc part of human IgG1 (hVCAM-1 (1-3)-IgG). The content of hVCAM-1 (1-3)-IgG was about 0.5-1 μg/ml. After removal of the culture supernatant, washing was carried out once with PBS.
2.4 The plates were incubated at room temperature for 20 minutes with 100 μl/well of Fc receptor blocking buffer (1 mg/ml of γ-globulin, 100 mM NaCl, 100 μM MgCl2, 100 μM MnCl2, 100 μM CaCl2, 1 mg/ml of BSA in 50 mM HEPES, pH 7.5). After removal of the Fc receptor blocking buffer, washing was carried out once with PBS.
2.5 20 μl of binding buffer (100 mM NaCl, 100 μM MgCl2, 100 μM MnCl2, 100 μM CaCl2, 1 mg/ml of BSA in 50 mM HEPES, pH 7.5) were initially introduced, and the substances to be tested were added in 10 μl of binding buffer and incubated for 20 minutes. The controls used were antibodies against VCAM-1 (BBT, No. BBA6) and against VLA-4 (immunotech, No. 0764).
2.6 U937 cells were incubated in Fc receptor blocking buffer for 20 minutes and then added by pipette in a concentration of 1×10^6/ml and in an amount of 100 μl per well ([…]).
2.7 The plates were slowly immersed at an angle of 45° in stop buffer (100 mM NaCl, 100 μM MgCl2, 100 μM MnCl2, 100 μM CaCl2 in 25 mM tris, pH 7.5) and shaken off. The process was repeated.
2.8 50 μl/well of a dye solution (16.7 μg/ml of Hoechst Dye 33258, 4% formaldehyde, 0.5% triton X-100 in PBS) were then incubated on the plates for 15 minutes. […]

T1 sequence (P13612 34-1032): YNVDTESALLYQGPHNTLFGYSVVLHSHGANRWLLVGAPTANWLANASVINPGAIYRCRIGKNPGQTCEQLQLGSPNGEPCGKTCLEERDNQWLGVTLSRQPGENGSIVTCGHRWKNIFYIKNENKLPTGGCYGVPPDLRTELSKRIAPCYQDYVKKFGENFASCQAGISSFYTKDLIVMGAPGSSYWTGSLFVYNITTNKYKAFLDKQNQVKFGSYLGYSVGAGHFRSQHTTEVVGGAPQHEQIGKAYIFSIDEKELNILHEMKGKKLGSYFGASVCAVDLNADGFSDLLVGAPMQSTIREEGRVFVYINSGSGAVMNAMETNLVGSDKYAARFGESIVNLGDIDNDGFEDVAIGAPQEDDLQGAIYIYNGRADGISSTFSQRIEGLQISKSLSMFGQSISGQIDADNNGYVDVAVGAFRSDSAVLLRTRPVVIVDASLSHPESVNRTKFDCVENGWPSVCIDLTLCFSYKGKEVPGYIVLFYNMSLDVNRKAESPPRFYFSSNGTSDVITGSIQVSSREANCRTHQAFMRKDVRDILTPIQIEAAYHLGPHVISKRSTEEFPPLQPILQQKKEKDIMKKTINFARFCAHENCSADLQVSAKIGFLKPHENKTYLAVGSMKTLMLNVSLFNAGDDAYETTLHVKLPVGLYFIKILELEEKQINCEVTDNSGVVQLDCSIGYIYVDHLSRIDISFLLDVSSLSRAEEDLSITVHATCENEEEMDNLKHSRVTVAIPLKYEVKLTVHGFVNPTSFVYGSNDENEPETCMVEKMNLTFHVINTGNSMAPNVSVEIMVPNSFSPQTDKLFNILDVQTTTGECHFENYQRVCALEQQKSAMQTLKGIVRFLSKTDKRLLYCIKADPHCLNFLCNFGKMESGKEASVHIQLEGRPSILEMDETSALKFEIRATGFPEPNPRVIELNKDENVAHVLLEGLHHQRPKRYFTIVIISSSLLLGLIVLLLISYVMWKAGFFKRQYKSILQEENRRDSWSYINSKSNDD
T1 sequence (P05556 21-798): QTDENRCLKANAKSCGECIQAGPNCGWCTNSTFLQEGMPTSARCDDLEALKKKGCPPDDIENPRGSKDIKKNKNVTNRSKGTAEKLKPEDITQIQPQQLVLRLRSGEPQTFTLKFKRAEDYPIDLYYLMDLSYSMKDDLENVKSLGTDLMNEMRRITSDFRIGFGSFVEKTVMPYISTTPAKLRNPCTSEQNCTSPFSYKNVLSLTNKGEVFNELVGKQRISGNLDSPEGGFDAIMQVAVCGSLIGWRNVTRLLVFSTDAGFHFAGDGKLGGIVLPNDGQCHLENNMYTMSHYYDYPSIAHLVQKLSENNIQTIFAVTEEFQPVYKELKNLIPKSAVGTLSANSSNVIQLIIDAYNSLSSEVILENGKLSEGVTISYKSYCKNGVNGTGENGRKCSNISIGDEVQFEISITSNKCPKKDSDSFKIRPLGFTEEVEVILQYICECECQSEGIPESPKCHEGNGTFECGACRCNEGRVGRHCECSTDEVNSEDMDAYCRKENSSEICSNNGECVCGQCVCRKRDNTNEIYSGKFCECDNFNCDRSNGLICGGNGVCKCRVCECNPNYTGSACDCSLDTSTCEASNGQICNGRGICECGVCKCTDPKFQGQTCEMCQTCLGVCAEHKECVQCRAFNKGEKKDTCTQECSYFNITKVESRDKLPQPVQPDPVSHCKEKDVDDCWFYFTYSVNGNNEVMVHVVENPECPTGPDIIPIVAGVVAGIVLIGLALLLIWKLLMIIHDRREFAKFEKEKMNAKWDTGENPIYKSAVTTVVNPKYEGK

Structure (SMILES) | IC50 [µM]
CC1(C)C(=O)N(CC(=O)N[C@@H](CC(=O)O)C(=O)NC2C3CC4CC(C3)CC2C4)C(=O)N1Cc1ccc(NC(=O)Nc2ccccc2)cc1 (stereo partly drawn) [Example 24, (2-(4,4-Dimethyl-3-(4-(3-phenylureido)benzyl)-2,5-dioxoimidazolidin-1-yl)-acetyl)-L-(2-adamantyl)aspartamide] | 0.006
CC(C)C[C@@H](C(=O)N[C@@H](CC(=O)O)C(=O)NC1C2CC3CC(C2)CC1C3)N1C(=O)N(Cc2ccc(NC(=O)Nc3ccccc3)cc2)C(C)(C)C1=O (some centres unmarked) [Example 25] | 0.006
Cc1ccccc1NC(=O)Nc1ccc(CN2CC(=O)N(CC(=O)N[C@H](C)CC(=O)O)C2=O)cc1 [Example 26, (R)-3-(2-(3-(4-(3-(2-Methylphenyl)ureido)benzyl)-2,5-dioxoimidazolidin-1-yl)-acetylamino)-3-methylpropionic Acid] | 2.9
Cc1ccccc1NC(=O)Nc1ccc(CN2C(=O)N([C@@H](CC(C)C)C(=O)N[C@@H](CC(=O)O)C(=O)O)C(=O)C2(C)C)cc1 [Example 27, ((S)-2-(4,4Dimethyl-3-(4-(3-(2-methylphenyl)ureido)benzyl)-2,5-dioxoimidazolidin-1-yl)-2-(2-methylpropyl)acetyl)-L-aspartic Acid] | 0.027
Cc1ccccc1NC(=O)Nc1ccc(CN2C(=O)N(CC(=O)N(C)[C@@H](CC(=O)O)C(=O)O)C(=O)C2(C)C)cc1 [Example 28, (2-(4,4-Dimethyl-3-(4-(3-(2-methylphenyl)ureido)benzyl)-2,5-dioxoimidazolidin-1-yl)-acetyl)-N-methyl-L-aspartic Acid] | 0.11
Cc1ccccc1NC(=O)Nc1ccc(CN2CC(=O)N(CC(=O)N[C@@H](CC(=O)O)c3ccccc3)C2=O)cc1 [Example 29, (S)3-(2-(3-(4-(3-(2-Methylphenyl)ureido)benzyl)-2,5-dioxoimidazolidin-1-yl)-acetylamino)-3-phenylpropionic Acid] | 0.89
C[C@H](CC(=O)O)NC(=O)CN1C(=O)CN(Cc2ccc(NC(=O)Nc3ccccc3Cl)cc2)C1=O [Example 30, (R)-3-(2-(3-(4-(3-(2-Chlorophenyl)ureido)benzyl)-2,5-dioxoimidazolidin-1-yl)-acetylamino)-3-methylpropionic Acid] | 0.58
Cc1cccc(NC(=O)Nc2ccc(CN3C(=O)N(CC(=O)NC(C)CC(=O)O)C(=O)C3(C)C)cc2)c1C (centres unmarked) [Example 34] | 0.49
COC(=O)c1ccccc1NC(=O)Nc1ccc(CN2C(=O)N(CC(=O)N[C@H](C)CC(=O)O)C(=O)C2(C)C)cc1 [Example 38] | 0.4
CCc1cccc(C)c1NC(=O)Nc1ccc(CN2C(=O)N(CC(=O)N[C@@H](CC(=O)O)c3ccccc3)C(=O)C2(C)C)cc1 [Example 41] | 1.47
Cc1cccc(C)c1NC(=O)Nc1ccc(CN2C(=O)N(CC(=O)N[C@@H](CC(=O)O)c3ccccc3)C(=O)C2(C)C)cc1 [Example 42] | 0.47
Cc1ccc(NC(=O)Nc2ccc(CN3C(=O)N(CC(=O)N[C@@H](CC(=O)O)c4ccccc4)C(=O)C3(C)C)cc2)c(C)c1 [Example 43] | 0.74
Cc1ccccc1NC(=O)Nc1ccc(CN2C(=O)N([C@@H](CC(C)C)C(=O)N[C@@H](CC(=O)O)C(=O)N[C@H](C(=O)O)c3ccccc3)C(=O)C2(C)C)cc1 [Example 47, ((S)-2-(4,4-Dimethyl-3-(4-(3-(2-methylphenyl)ureido)benzyl)-2,5-dioxoimidazolidin-1-yl)-2-(2-methylpropyl)acetyl)-L-aspartyl-L-phenylglycine] | 0.00085
CC(C)C[C@@H](C(=O)N[C@@H](CC(=O)O)C(=O)N[C@H](C(=O)O)c1ccccc1)N1C(=O)N(Cc2ccc(NC(=O)Nc3ccc(F)cc3)cc2)C(C)(C)C1=O [Example 49] | 0.013
CC(C)C[C@@H](C(=O)N[C@@H](CC(=O)O)C(=O)N[C@H](C(=O)O)c1ccccc1)N1C(=O)N(Cc2ccc(NC(=O)NCc3ccccc3)cc2)C(C)(C)C1=O [Example 58] | 0.45
COc1ccccc1NC(=O)Nc1ccc(CN2C(=O)N([C@@H](CC(C)C)C(=O)N[C@@H](CC(=O)O)C(=O)N[C@H](C(=O)O)c3ccccc3)C(=O)C2(C)C)cc1 [Example 61] | 0.0245
CC(C)C[C@@H](C(=O)N[C@@H](CC(=O)O)C(=O)N[C@H](C(=O)O)c1ccccc1)N1C(=O)N(Cc2ccc(NC(=O)Nc3ccccc3Cl)cc2)C(C)(C)C1=O [Example 62] | 0.005
CC(C)C[C@@H](C(=O)N[C@@H](CC(=O)O)C(=O)N[C@H](C(=O)O)c1ccccc1)N1C(=O)N(Cc2ccc(NC(=O)Nc3ccccc3F)cc2)C(C)(C)C1=O [Example 67] | 0.0023
CC(C)C[C@@H](C(=O)N[C@@H](CC(=O)O)C(=O)N[C@H](C(=O)O)c1ccccc1)N1C(=O)N(Cc2ccc(NC(=O)Nc3ccccc3C(F)(F)F)cc2)C(C)(C)C1=O [Example 68] | 0.3
Cc1ccccc1NC(=O)Nc1ccc(CN2C(=O)N([C@@H](C)C(=O)N[C@H](C)CC(=O)O)C(=O)C2(C)C)cc1 [Example 90, (R)-3-((S)-2-(4,4-Dimethyl-3-(4-(3-(2-methylphenyl)ureido)benzyl)-2,5-dioxoimidazolidin-1-yl)-2-methyl-acetylamino)-3-methylpropionic Acid] | 0.082
Cc1ccccc1NC(=O)Nc1ccc(CN2C(=O)N(CC(=O)NC(C)(C)CC(=O)O)C(=O)C2(C)C)cc1 [Example 91, 3-(2-(4,4-Dimethyl-3-(4-(3-(2-methylphenyl)ureido)benzyl)-2,5-dioxoimidazolidin-1-yl)acetylamino)-3,3-dimethylpropionic Acid] | 0.21
C[C@H](CC(=O)O)NC(=O)[C@H](CC1CC1)N1C(=O)N(Cc2ccc(NC(=O)Nc3ccccc3)cc2)C(C)(C)C1=O [Example 92, (R)-3-((S)-2-(4,4-Dimethyl-3-(4-(3-phenylureido)benzyl)-2,5-dioxoimidazolidin-1-yl)-2-cyclopropylmethylacetylamino)-3-methylpropionic Acid] | 0.04
Cc1ccccc1NC(=O)Nc1ccc(CN2C(=O)N(CC(=O)N[C@@H](CC(=O)O)c3ccc4c(c3)OCO4)C(=O)C2(C)C)cc1 [Example 93, (S)-3-(2-(4,4-Dimethyl-3-(4-(3-(2-methylphenyl)ureido)benzyl)-2,5-dioxoimidazolidin-1-yl)acetylamino)-3-(3,4-methylenedioxyphenyl)propionic Acid] | 0.007
Cc1ccccc1NC(=O)Nc1ccc(CN2C(=O)N(CC(=O)NC[C@H](NC(=O)OCc3ccccc3)C(=O)O)C(=O)C2(C)C)cc1 [Example 94] | 0.022
Cc1ccccc1NC(=O)Nc1ccc(CN2C(=O)N([C@@H](CC(C)C)C(=O)N[C@@H](CC(=O)O)C(=O)N[C@H](C(=O)N3CCC[C@H]3C(=O)O)C(C)C)C(=O)C2(C)C)cc1 [Example 133, ((S)-2-(4,4-Dimethyl-3-(4-(3-(2-methylphenyl)ureido)benzyl)-2,5-dioxoimidazolidin-1-yl)-2-(2-methylpropyl)acetyl)-L-aspartyl-L-valyl-L-proline] | 0.0015
Cc1ccccc1NC(=O)Nc1ccc(CN2C(=O)N([C@@H](CC(C)C)C(=O)N[C@@H](CC(=O)O)c3ccc4ccccc4c3)C(=O)C2(C)C)cc1 [Example 184] | 0.004
